Reference: patent US9616003B2 (priority 2012, dated 2017)

Tests used:
[1] = tested on: chronic periodontitis patients; conditions: boric acid 0.75%
[2] = 1/16 solution, namely 0.75% solution (nontoxic dosage), and further dilution
Experimental: (§1) The cytotoxicity of the obtained solution is tested by in vitro cell culture (in the gingiva and periodontal ligament cells) studies.

gingiva cells = tested on: gingiva cells
Experimental: (§2) 12% stock solution is prepared from boric acid (12 g boric acid/100 ml distilled water). ½, ¼, ⅛, 1/16, 1/32, 1/64, 1/128 dilutions are prepared from this solution. All these processes are carried out in laminar flow cabin II. Solutions are sterilized by filters with a sieve size of 0.22 μm. The pH of the prepared boric acid solution must be 4.9.
as §1

[3] = tested on: periodontal ligament cells
Experimental: as §2, §1

[4] = prior art statement; cited from earlier work

OB(O)O [boric acid]
clinical periodontal parameters ([1]; compared to normal saline (control) and chlorhexidine groups): better in clinical periodontal parameters compared to normal saline (control) and chlorhexidine groups
side effects ([1]; three-month follow up of enrolled patients): no side effects
antibacterial features [2]: maintains its antibacterial features even if it is diluted more
viability of the cells (gingiva cells): diminish the viability of the cells until a dilution of 1/16
viability of the cells [3]: diminish the viability of the cells until a dilution of 1/16

[H]/N=C(\N/C(=N/[H])NCCCCCCNC(=N)NC(=N)Nc1ccc(Cl)cc1)Nc1ccc(Cl)cc1 [chlorhexidine]
toxicity in cellular level [4]: toxic in cellular level
